# US20230233425A1, “USE OF VOLATILE COMPOSITIONS TO LIMIT OR ELIMINATE THE PERCEPTION OF MALODOR” (Firmenich SA, priority 2017, published 2023)
# Where “and” joins values, the source holds several entries; their conditions need not be identical. Identical values can stand only once. Like-named read-outs stand apart in the source and are kept apart here. Marks after values point to notes of the source that are not given here.
# Experiments:
# [1] = test system: geonol receptors Olfr339, Olfr1487, Olfr1A1, OR11A1, Olfr96; assay: Antagonists of geonol receptors (Example 11); format: cell-based, mouse and human; set-up: Inhibition(%): concentration or dose not given beside the values; details: Table 18
# Olfr740 = Olfr740 (Mus musculus, UniProt E9PV79); assay: Indole antagonist dose-response, cAMP HTRF in HEK293T, vs indole EC80; format: cell-based; details: vs indole EC80; for Emax: HEK-293T, read-out: Olfr740 % Inhibition; for IC50: read-out: Olfr740 IC50
# Procedure: (§1) Using a cell-based assay, mouse receptor Olfr738, Olfr739, Olfr740, Olfr741, 0fr742, Olfr743, Olfr744, Olfr746, Olfr748 and Olfr749 were tested in an HEK293T cell line wherein the endogenous RTP1 gene has been activated and the odorant receptor chaperone was expressed (described in WO2016201153A1). The receptor genes were tagged with a Flag-Rho tag combination. Receptor genes were co-transfected with the canonical olfactory human G-protein alpha subunit Golf gene. Co-expression of the human Golf activates the Gs transduction pathway that leads to an internal cAMP increase upon binding to the appropriate ligand (indole here). Odorant-induced activity was detected by measuring the cAMP increase in the cytosol using an HTRF based kit (CisBio, cAMP dynamic 2 kit, cat. 62AM4PEJ).
# Olfr746 = target: T1, Olfr746 (Mus musculus, UniProt E9Q840); assay: as above; format: cell-based; details: Table 23
# T1 construct: Flag; Rho tag; expressed in transfected cells
# T1 sequence (E9Q840 1-314): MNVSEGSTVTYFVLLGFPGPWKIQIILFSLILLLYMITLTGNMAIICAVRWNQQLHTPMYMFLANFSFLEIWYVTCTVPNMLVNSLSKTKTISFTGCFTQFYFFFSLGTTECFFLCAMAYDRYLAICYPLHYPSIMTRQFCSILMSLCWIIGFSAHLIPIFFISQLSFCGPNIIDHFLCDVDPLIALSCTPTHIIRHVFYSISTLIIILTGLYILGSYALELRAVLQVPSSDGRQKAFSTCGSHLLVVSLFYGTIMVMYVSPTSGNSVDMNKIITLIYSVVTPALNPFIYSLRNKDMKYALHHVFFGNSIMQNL
# Procedure: as §1, with “Functional dose-response experiments were performed to identify compounds capable of antagonizing indole-sensitive receptors previously identified (U.S. Pat. No. 9,914,760 B2). Using” for “Using”, “62AM4PEJ). The receptors were exposed to binary mixtures of increasing concentrations of the test compounds in the presence of a potent activation concentration of indole (EC80) for each receptor. […] All the compounds listed decreased the indole induced activity of at least one receptor.” for “62AM4PEJ).”
# [2] = test system: geonol malodor (earthy/moss odor) perception; assay: Sensory evaluation of geonol earthy/moss odor in iso-intense binary mixtures (glass jars); format: in vivo, human; details: iso-intense binary mixture
# Text: Sensory Evaluation: Five 16 oz glass jars containing either REF (geonol only), geonol only control, antagonist only, mixture of geonol and isointense antagonist, or mixture of geonol and low intensity antagonist were presented to the panelists (last four samples were randomized across panelists). The panelists were asked to familiarize themselves with the earthy/moss odor quality from the REF jar first, then rate the pleasantness, earthy/moss odor intensity and overall odor intensity of the next four samples on a 0-10 linear scale. The inter-stimulus interval between the samples was two minutes to avoid adaptation.
# [3] = test system: geonol earthy/moss odor perception; assay: Human sensory performance of test compounds with and without geonol; format: in vivo; details: for % Earthy/Moss Odor: Test Compound Only
# How it was run: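 Panelists first learned the earthy/moss quality from a geonol-only reference, then rated pleasantness, earthy/moss intensity and overall intensity of geonol alone, antagonist alone, and geonol mixed with isointense or low-intensity antagonist on a 0-10 linear scale. Samples were presented in glass jars in randomized order with two-minute intervals.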
# [4] = test system: 1-octen-3-ol mushroom/earthy/fungal odor perception; assay: Human sensory performance of test compounds with and without 1-octen-3-ol; format: in vivo
# [5] = target: 1-octen-3-ol receptors OR2W1, Olfr93, Olfr120, Olfr398; assay: Antagonists of 1-octen-3-ol receptors (Example 11); format: cell-based, mouse and human; set-up: Inhibition(%): concentration or dose not given beside the values; details: Table 19
# Olfr743 = Olfr743 (Mus musculus, UniProt L7N1Y2); assay: Indole antagonist dose-response, cAMP HTRF in HEK293T, vs indole EC80; format: cell-based; details: Table 23
# Procedure: as §1, with “Functional dose-response experiments were performed to identify compounds capable of antagonizing indole-sensitive receptors previously identified (U.S. Pat. No. 9,914,760 B2). Using” for “Using”, “62AM4PEJ). The receptors were exposed to binary mixtures of increasing concentrations of the test compounds in the presence of a potent activation concentration of indole (EC80) for each receptor. […] All the compounds listed decreased the indole induced activity of at least one receptor.” for “62AM4PEJ).”
# Olfr744 = target: T2, Olfr744 (Mus musculus, UniProt Q7TRM0); assay: as above; format: cell-based; details: Table 23
# T2 construct: Flag; Rho tag; expressed in transfected cells
# T2 sequence (Q7TRM0 1-323): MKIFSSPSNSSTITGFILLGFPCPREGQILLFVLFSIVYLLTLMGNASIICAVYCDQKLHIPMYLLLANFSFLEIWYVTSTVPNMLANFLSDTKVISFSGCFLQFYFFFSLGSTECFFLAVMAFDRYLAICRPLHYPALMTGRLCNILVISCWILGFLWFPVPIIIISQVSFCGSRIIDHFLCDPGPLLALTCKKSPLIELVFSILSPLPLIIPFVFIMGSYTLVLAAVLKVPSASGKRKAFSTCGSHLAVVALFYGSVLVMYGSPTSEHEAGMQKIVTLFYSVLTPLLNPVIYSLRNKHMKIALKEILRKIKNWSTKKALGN
# Procedure: as §1, with “Functional dose-response experiments were performed to identify compounds capable of antagonizing indole-sensitive receptors previously identified (U.S. Pat. No. 9,914,760 B2). Using” for “Using”, “62AM4PEJ). The receptors were exposed to binary mixtures of increasing concentrations of the test compounds in the presence of a potent activation concentration of indole (EC80) for each receptor. […] All the compounds listed decreased the indole induced activity of at least one receptor.” for “62AM4PEJ).”
# Olfr749 = target: T3, Olfr749 (Mus musculus, UniProt E9Q438); assay: as above; format: cell-based; details: Table 23
# T3 construct: Flag; Rho tag; expressed in transfected cells
# T3 sequence (E9Q438 1-313): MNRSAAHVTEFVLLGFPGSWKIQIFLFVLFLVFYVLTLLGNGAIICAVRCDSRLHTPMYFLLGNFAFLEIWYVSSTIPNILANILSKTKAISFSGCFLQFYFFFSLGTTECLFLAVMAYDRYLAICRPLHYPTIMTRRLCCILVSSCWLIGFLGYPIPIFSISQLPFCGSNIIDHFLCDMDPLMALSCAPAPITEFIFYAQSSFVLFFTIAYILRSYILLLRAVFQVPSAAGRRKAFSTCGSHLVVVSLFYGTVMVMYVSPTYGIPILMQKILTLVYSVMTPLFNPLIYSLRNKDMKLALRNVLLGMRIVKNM
# Procedure: as §1, with “Functional dose-response experiments were performed to identify compounds capable of antagonizing indole-sensitive receptors previously identified (U.S. Pat. No. 9,914,760 B2). Using” for “Using”, “62AM4PEJ). The receptors were exposed to binary mixtures of increasing concentrations of the test compounds in the presence of a potent activation concentration of indole (EC80) for each receptor. […] All the compounds listed decreased the indole induced activity of at least one receptor.” for “62AM4PEJ).”
# [6] = test system: OR11A1, or the OR2M3 olfactory receptor; assay: Geonol olfactory receptor antagonist cell-based screening, inhibitory dose-response vs geonol EC80; set-up: species or system human; details: geonol at EC80
# Olfr738 = Olfr738 (Mus musculus, UniProt L7N1X7); assay: Indole antagonist dose-response, cAMP HTRF in HEK293T, vs indole EC80; format: cell-based; details: Table 22, first listing, vs indole EC80
# Procedure: as §1
# Olfr741 = Olfr741 (Mus musculus, UniProt L7N1Y5); assay: as above; format: cell-based; details: Table 22, second listing of the same compounds
# Procedure: as §1
# Olfr742 = Olfr742 (Mus musculus, UniProt A2RTP5); assay: as above; format: cell-based; details: vs indole EC80
# Procedure: as §1
# Olfr748 = Olfr748 (Mus musculus, UniProt E9Q9Z0); assay: as above; format: cell-based; details: Table 23
# Procedure: as §1
# [7] = Table 22, second listing of the same compounds
# [8] = Low Dilution Test Compound + Geonol (0.1%)
# [9] = Medium Dilution Test Compound + Geonol (0.1%)
# Chain of Olfr742 (A2RTP5 entry or part of it): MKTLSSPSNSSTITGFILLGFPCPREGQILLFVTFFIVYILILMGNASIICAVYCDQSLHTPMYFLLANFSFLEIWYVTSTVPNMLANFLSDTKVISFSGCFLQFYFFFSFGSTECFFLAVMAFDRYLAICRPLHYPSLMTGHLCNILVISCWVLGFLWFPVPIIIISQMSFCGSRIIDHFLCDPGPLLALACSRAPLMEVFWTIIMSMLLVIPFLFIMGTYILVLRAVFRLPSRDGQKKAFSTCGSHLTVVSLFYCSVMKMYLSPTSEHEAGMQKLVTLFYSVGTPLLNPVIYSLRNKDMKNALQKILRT
# Chain of Olfr740 (E9PV79 entry or part of it): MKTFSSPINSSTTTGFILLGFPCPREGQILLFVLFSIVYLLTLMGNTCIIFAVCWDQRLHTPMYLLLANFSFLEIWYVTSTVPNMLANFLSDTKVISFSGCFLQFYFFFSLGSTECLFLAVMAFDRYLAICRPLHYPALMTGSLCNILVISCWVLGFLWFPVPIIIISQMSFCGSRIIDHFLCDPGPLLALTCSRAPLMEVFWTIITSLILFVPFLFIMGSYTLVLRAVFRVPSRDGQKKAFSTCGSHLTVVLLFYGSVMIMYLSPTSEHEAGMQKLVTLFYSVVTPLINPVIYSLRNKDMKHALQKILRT
# Chain of Olfr743 (L7N1Y2 entry or part of it): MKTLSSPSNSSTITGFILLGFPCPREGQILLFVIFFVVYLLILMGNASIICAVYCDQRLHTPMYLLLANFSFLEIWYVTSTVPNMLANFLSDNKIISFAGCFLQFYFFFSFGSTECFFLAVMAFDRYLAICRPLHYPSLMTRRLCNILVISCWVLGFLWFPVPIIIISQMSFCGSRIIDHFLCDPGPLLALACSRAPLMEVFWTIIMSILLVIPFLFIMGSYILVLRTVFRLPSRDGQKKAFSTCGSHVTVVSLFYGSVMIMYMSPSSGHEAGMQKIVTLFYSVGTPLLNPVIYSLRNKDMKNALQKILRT
# Chain of Olfr748 (E9Q9Z0 entry or part of it): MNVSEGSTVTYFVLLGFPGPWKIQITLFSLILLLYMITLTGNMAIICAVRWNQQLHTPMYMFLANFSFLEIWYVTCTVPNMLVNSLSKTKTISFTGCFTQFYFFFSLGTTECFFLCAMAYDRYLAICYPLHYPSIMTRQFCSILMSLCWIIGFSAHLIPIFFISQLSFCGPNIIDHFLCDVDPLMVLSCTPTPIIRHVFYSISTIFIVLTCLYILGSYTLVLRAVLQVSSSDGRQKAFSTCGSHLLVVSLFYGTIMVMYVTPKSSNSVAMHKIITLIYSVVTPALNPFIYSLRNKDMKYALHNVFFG
# Chain of Olfr741 (L7N1Y5 entry or part of it): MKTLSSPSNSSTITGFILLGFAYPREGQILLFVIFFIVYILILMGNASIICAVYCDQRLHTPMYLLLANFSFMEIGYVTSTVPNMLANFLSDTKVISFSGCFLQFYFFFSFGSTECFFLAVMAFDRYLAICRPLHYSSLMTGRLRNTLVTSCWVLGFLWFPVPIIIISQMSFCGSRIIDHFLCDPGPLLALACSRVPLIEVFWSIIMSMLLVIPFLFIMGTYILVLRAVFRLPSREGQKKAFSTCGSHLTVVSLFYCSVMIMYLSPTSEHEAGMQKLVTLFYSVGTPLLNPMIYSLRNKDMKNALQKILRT
# Chain of Olfr738 (L7N1X7 entry or part of it): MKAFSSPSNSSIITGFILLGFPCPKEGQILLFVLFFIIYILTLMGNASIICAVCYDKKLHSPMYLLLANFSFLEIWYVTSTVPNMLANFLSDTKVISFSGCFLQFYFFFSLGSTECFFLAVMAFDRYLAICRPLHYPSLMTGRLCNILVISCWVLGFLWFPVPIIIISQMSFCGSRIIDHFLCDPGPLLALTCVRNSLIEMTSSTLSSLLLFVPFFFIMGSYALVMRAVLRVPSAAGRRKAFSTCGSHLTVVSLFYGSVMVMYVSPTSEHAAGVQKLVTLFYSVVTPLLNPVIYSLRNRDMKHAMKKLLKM
compound,measurement,setting,value
"C=CCCC(=O)C1=CCCC(C)(C)C1 [1-(5,5-dimethylcyclohexen-1-yl)pent-4-en-1-one]",IC50,[1],220 µM
same,Inhibition(%),[1],40%
same,Emax,"Olfr740; Table 22, first listing",91.2%
same,Emax,Olfr740; [7],58.9%
same,IC50,"Olfr740; Table 22, first listing (r7-r45)",63.6 µM
same,IC50,Olfr746,224 µM
same,Olfr746 % Inhibition,Olfr746,58.87%
"4-(2,6,6-trimethylcyclohexen-1-yl)but-3-en-2-one; 4-(2,6,6-trimethylcyclohex-2-en-1-yl)but-3-en-2-one",% Remaining in human sensory tests,[2],59* %
same,% Earthy/Moss Odor Remaining,[3]; [8],73.40%
same,% Earthy/Moss Odor Remaining,[3]; [9],70.30%
same,% Earthy/Moss Odor,[3],27.10%
same,% Mushroom/Earthy/Fungal Odor Remaining,[4]; Low Dilution Test Compound + 1-octen-3-ol (0.15%),94.80%
same,% Mushroom/Earthy/Fungal Odor Remaining,[4]; Medium Dilution Test Compound + 1-octen-3-ol (0.15%),73.90%
same,% Mushroom/Earthy/Fungal Odor,[4]; Test Compound Only,20.30%
same,IC50,[5],146 µM
same,Inhibition(%),[5],79%
same,IC50,Olfr743,275 µM and 159 µM
same,Olfr743 % Inhibition,Olfr743,114.78% and 112.64%
same,IC50,Olfr744,125 µM and 159 µM
same,Olfr744 % Inhibition,Olfr744,78.23% and 77.99%
same,IC50,Olfr749,75.8 µM and 76 µM
3-(4-hydroxy-4-methylpentyl)cyclohex-3-ene-1-carbaldehyde; 4-(4-hydroxy-4-methylpentyl)cyclohex-3-ene-1-carbaldehyde,% Inhibition,[6],60%
same,IC50,[6]; read-out: IC50,217 µM
same,% Earthy/Moss Odor Remaining,[3]; [8],85.70%
same,% Earthy/Moss Odor Remaining,[3]; [9],78.70%
same,% Earthy/Moss Odor,[3],15.40%
same,Olfr738 % Inhibition,Olfr738,14.67%
same,IC50,Olfr738; read-out: Olfr738 IC50,166 µM
same,Olfr740 % Inhibition,"Olfr740; Table 22, first listing",72.15%
same,IC50,"Olfr740; Table 22, first listing",185 µM
same,Olfr740 % Inhibition,Olfr740; [7],43.95%
same,IC50,Olfr741,213 µM
same,Olfr741 % Inhibition,Olfr741,48.14%
same,Olfr742 % Inhibition,"Olfr742; Table 22, first listing",41.42%
same,IC50,"Olfr742; Table 22, first listing, read-out: Olfr742 IC50",182 µM
same,Olfr742 % Inhibition,Olfr742; [7],62.05%
same,IC50,Olfr748,213 µM
same,Olfr748 % Inhibition,Olfr748,48.14%
same,IC50,Olfr746,373 µM
same,Olfr746 % Inhibition,Olfr746,43.95%
same,IC50,Olfr749,233 µM
same,Olfr749 % Inhibition,Olfr749,62.05%
